Measured values reported in PubChem BioAssay (NCI).
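A five-concentration, 48-hour dose response in 96-well plates underlies each endpoint, interpolated linearly between surrounding concentrations. GI50 marks 50% less growth. Definition used: TGI = concentration required for complete inhibition of growth.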

Experiments:
Assay in all cases: NCI-60 cell line screen, 48 h
COLO 205 colon = tested on: COLO 205 colon
HCT-116 colon = tested on: HCT-116 colon
HOP-92 NSCLC = tested on: HOP-92 NSCLC
IGROV1 ovarian = tested on: IGROV1 ovarian
KM12 colon = tested on: KM12 colon
MDA-MB-435 = tested on: MDA-MB-435
MOLT-4 leukemia = tested on: MOLT-4 leukemia
SF-268 CNS = tested on: SF-268 CNS
SK-OV-3 ovarian = tested on: SK-OV-3 ovarian
U251 CNS = tested on: U251 CNS

| Structure (SMILES) | GI50 (COLO 205 colon) | TGI (COLO 205 colon) | GI50 (HCT-116 colon) | TGI (HCT-116 colon) | GI50 (HOP-92 NSCLC) | TGI (HOP-92 NSCLC) | GI50 (IGROV1 ovarian) | TGI (IGROV1 ovarian) | GI50 (KM12 colon) | TGI (KM12 colon) | GI50 (MDA-MB-435) | TGI (MDA-MB-435) | GI50 (MOLT-4 leukemia) | TGI (MOLT-4 leukemia) | GI50 (SF-268 CNS) | TGI (SF-268 CNS) | GI50 (SK-OV-3 ovarian) | TGI (SK-OV-3 ovarian) | GI50 (U251 CNS) | TGI (U251 CNS) |
| --- | --- | --- | --- | --- | --- | --- | --- | --- | --- | --- | --- | --- | --- | --- | --- | --- | --- | --- | --- | --- |
| Nc1ccc(N=Nc2ccccc2)c(N)n1 | 26100 nM | 72.8 µM | 23000 nM | 60.5 µM | 14800 nM | 65.9 µM | 23.7 µM | 77.5 µM | 15.5 µM | 56.6 µM | 22400 nM | 80.1 µM | 35400 nM | > 100 µM | 16.8 µM | 72.9 µM | 30.1 µM | > 100 µM | 29.8 µM | > 100 µM |
| OCc1cccc(-c2ccc3ncc(-c4nc(NC5CC5)ncc4F)n3c2)c1 | 242 nM | 0.656 µM | 182 nM | > 100 µM | 303 nM | 0.901 µM | 0.227 µM | 1.32 µM | 0.222 µM | 1.21 µM | 284 nM | 0.919 µM | 266 nM | – | 0.275 µM | 0.801 µM | 0.448 µM | 7.06 µM | 0.25 µM | > 100 µM |
| NC1C2C(CC(=O)O)OCC=C3CN4CCC1(C(=O)C(=O)O)C4CC32 (centres undefined) | – | > 100 µM | – | > 100 µM | – | > 100 µM | – | > 100 µM | – | > 100 µM | – | > 100 µM | – | > 100 µM | – | > 100 µM | – | > 100 µM | – | > 100 µM |
| O=CN1N=C(c2ccc(Nc3ccnc4cc(Cl)ccc34)cc2)CC1c1ccccc1 (centres undefined) | 2210 nM | 6.15 µM | 3580 nM | 18.5 µM | 4280 nM | > 100 µM | 9.36 µM | > 100 µM | 3.41 µM | 56.9 µM | 1590 nM | 4.67 µM | 2280 nM | 6.4 µM | 3.96 µM | > 100 µM | 11.3 µM | > 100 µM | 3.12 µM | 19.2 µM |
| COc1ccc(C2=CC(c3cc(OC)c(OC)c(OC)c3)NC(=O)N2)cc1OC (centres undefined) | 2650 nM | 6.69 µM | 3170 nM | 11.1 µM | 12500 nM | > 100 µM | 3.8 µM | 20.4 µM | 2.25 µM | 6.12 µM | 3100 nM | 16.9 µM | 2410 nM | 12.5 µM | 3.46 µM | 14.5 µM | 3.67 µM | > 100 µM | 3.82 µM | 14.1 µM |
| CNC(=O)c1c(NC(=O)c2cccc(C(F)(F)F)c2)sc2c1CCC(=O)C2 | 382 nM | 1.48 µM | 199 nM | 1.59 µM | 383 nM | 2.58 µM | 0.339 µM | 2.26 µM | 0.423 µM | 1.96 µM | 544 nM | 3.1 µM | 356 nM | 4.63 µM | 0.486 µM | > 100 µM | 2.22 µM | 8.24 µM | 0.259 µM | 2.73 µM |
| COc1cc2c(cc1OCCCOC1=C=C=C(c3ccc4c(c3)c3cc(-c5ccc(OCCCOc6cc7c(cc6OC)C(=O)N6CCC[C@H]6C=N7)cc5)ccc3n4S(=O)(=O)c3ccc(C)cc3)C=C1)N=C[C@@H]1CCCN1C2=O | 1900 nM | 9.78 µM | 1620 nM | 7.05 µM | 790 nM | 3.37 µM | 1.8 µM | 8.69 µM | 1.46 µM | 4.3 µM | 2070 nM | 5.25 µM | 739 nM | > 50 µM | 0.934 µM | 2.85 µM | 5.42 µM | 16.5 µM | 0.966 µM | 2.87 µM |
| Cc1cc(=O)c2cc(N=Cc3ccc([N+](=O)[O-])o3)ccc2o1 | – | > 100 µM | – | > 100 µM | – | > 100 µM | – | > 100 µM | – | > 100 µM | – | > 100 µM | – | > 100 µM | – | > 100 µM | – | > 100 µM | – | > 100 µM |
| C=C1C(=O)O[C@H]2[C@H]1CC/C(CNC(=O)/C=C/c1cccc(OC)c1)=C\CC[C@@]1(C)O[C@@H]21 | 1340 nM | 2.85 µM | 545 nM | 1.94 µM | 1030 nM | 3.38 µM | 1.96 µM | 5.3 µM | 5.8 µM | 20.5 µM | 1530 nM | 5.04 µM | 2120 nM | 7.36 µM | 2.29 µM | 6.69 µM | 11.2 µM | 23.3 µM | 1.58 µM | 3.11 µM |
| O=C(Nc1ccc(Cl)cc1)c1cc2c(cc1O)[nH]c1ccccc12 | 2390 nM | 5.53 µM | 2950 nM | 10.3 µM | 3180 nM | 12.5 µM | 4.31 µM | 18.7 µM | 2.89 µM | 7.27 µM | 2120 nM | 5.85 µM | 4180 nM | 47.4 µM | 3.92 µM | 14.7 µM | 2.32 µM | 6.51 µM | 3.18 µM | 11.3 µM |
| CCCCCCCCCCCCCCCC(=O)OCC1OC(n2cnc3c(=S)nc(N)[nH]c32)C(OC(=O)CCCCCCCCCCCCCCC)C1OC(=O)CCCCCCCCCCCCCCC (centres undefined) | 7390 nM | 35.8 µM | 1800 nM | > 50 µM | 3850 nM | > 50 µM | 22.7 µM | > 50 µM | 9.48 µM | > 50 µM | 3680 nM | > 50 µM | 2950 nM | > 50 µM | 7.9 µM | > 50 µM | 1.55 µM | > 27.8 µM | 24.1 µM | > 50 µM |
| CC1=C(C(=O)Nc2ccc3[nH]ncc3c2)C(c2ccc(F)cc2)NC(=O)N1 (centres undefined) | > 25000 nM | > 25 µM | > 25000 nM | > 25 µM | 425 nM | > 25 µM | > 25 µM | > 25 µM | > 25 µM | > 25 µM | > 25000 nM | > 25 µM | > 25000 nM | > 25 µM | 23.4 µM | > 25 µM | > 25 µM | > 25 µM | > 25 µM | > 25 µM |
| COc1cc(C(=O)/C=C/c2c(-c3ccc(F)cc3)nc3sc(C)cn23)cc(OC)c1OC | 4940 nM | > 100 µM | 2920 nM | > 100 µM | 155 nM | 6.32 µM | 8.71 µM | > 100 µM | 3.63 µM | > 100 µM | 1750 nM | 6.92 µM | 1620 nM | 5.13 µM | 15.2 µM | > 100 µM | 6.12 µM | > 100 µM | 4.07 µM | > 100 µM |
| O=c1[nH]cnc2c1nnn2C1OC(CO)C(O)C1O (centres undefined) | 1440 nM | 9.94 µM | 3880 nM | > 100 µM | 1660 nM | > 100 µM | 1.27 µM | > 57.7 µM | 3.89 µM | > 100 µM | 3510 nM | > 100 µM | 2440 nM | > 100 µM | 6.81 µM | > 100 µM | 0.375 µM | > 100 µM | 20.4 µM | > 100 µM |
| O=[N+]([O-])c1cc(O)c(O)cc1-c1cn2ccsc2n1 | 75200 nM | > 100 µM | 31100 nM | > 100 µM | 97200 nM | > 100 µM | 32.4 µM | > 100 µM | 40.4 µM | > 100 µM | 47300 nM | > 100 µM | 75900 nM | > 100 µM | 66.1 µM | > 100 µM | > 100 µM | > 100 µM | 77.1 µM | > 100 µM |
| Cc1ccccc1S(=O)(=O)N1[C@H](c2ccc(Cl)cc2)C(C(=O)N[C@@H](Cc2ccccc2)C(N)=O)=C[C@@H]1C(C)(C)C | 6800 nM | 14.3 µM | 2900 nM | 15.1 µM | 7240 nM | 17.4 µM | 9.57 µM | 23.1 µM | 4.49 µM | 13.3 µM | 6830 nM | 13.7 µM | 4870 nM | 31.3 µM | 6.56 µM | 16.4 µM | 8.5 µM | 21.7 µM | 5.28 µM | 12.1 µM |
| CC1=C(SCc2ccccc2)C(=O)c2ccccc2C1=O | – | 38.9 µM | – | 18.2 µM | – | 19 µM | – | 25.3 µM | – | 35.7 µM | – | 27.9 µM | – | 4.51 µM | – | 31.3 µM | – | 44.6 µM | – | 33.5 µM |
| N#Cc1cccc(C(=O)c2cnn(-c3ccc(F)cc3)c2N)c1 | > 25000 nM | > 25 µM | > 25000 nM | > 25 µM | > 25000 nM | > 25 µM | > 25 µM | > 25 µM | > 25 µM | > 25 µM | > 25000 nM | > 25 µM | > 25000 nM | > 25 µM | > 25 µM | > 25 µM | > 25 µM | > 25 µM | 18.1 µM | > 25 µM |
| CCOC(=O)c1cc2c(n1Cc1cc(OC)cc(OC)c1)-c1oncc1CCC2 | 64.7 nM | 6.15 µM | 58.8 nM | > 100 µM | 85.8 nM | 7.37 µM | 0.0732 µM | > 100 µM | 0.0472 µM | > 20.5 µM | 31.3 nM | 0.112 µM | 387 nM | > 100 µM | 0.243 µM | > 100 µM | 0.108 µM | > 100 µM | 0.255 µM | > 100 µM |
